Data taken from patent US12564595B2, “Prophylactic and therapeutic pharmaceutical agent for HIV infectious diseases characterized by comprising combination of integrase inhibitor and anti-HIV agent” (Shionogi & Co., Ltd., priority 2019, dated 2026).

Columns and labels:
[1] = system: HIV mutant strain 2 (E92Q/E138T/G140S/Q148H); assay: Test Example 2: resistance evaluation test (HeLa-CD4 reporter), mutant strain 2; assay type: cell-based; settings: FC=EC50 of mutant strain/EC50 of wild strain; HeLa-CD4 cells
Method in brief: (§1)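 HeLa-CD4 reporter cells were infected with wild-type or mutant HIV in the presence of serially diluted compound and cultured 3 days. Cell lysates were read by chemiluminescent reporter assay after about 1 h at room temperature. Fold change was calculated as mutant EC50 divided by wild-type EC50.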

HIV [2] = assay: Test Example 3: test for confirmation of combined use effect; assay type: cell-based; set-up: key to D value (dosewise additivity value): <-0.1 synergy, -0.1 to 0.1 additive, >0.1 antagonism
From the text: The two compounds in respect of which the effect of combined use was desired to be examined were mixed in various ratios, and the anti-HIV activity (50% HIV inhibiting concentration) for each combination was found by the method of test example 1. […] A brief description of the method of calculating the D value is given below.
The D value that is found by evaluating the anti-HIV activity of respective combinations of M concentrations of compound X1 and N concentrations of compound X2 is calculated by the following mathematical expression 1.
The effect of combined use was evaluated in terms of the D value in accordance with the following criteria • −0.5 to −0.2: strong synergetic effect • −0.2 to −0.1: weak synergetic effect • […]: additive synergetic effect • 0.1 to 0.2: weak antagonism • 0.2 to 0.5: strong antagonism

HIV [3] = assay: Test Example 16: anti-HIV activity in the presence of human serum protein (MT-4 cells); assay type: cell-based; settings: 100% extrapolation value, PS=4×(EC50 with 25% human serum protein/EC50 with no human serum protein)
Experimental: A stage dilution series of the test samples was created on a 96-well microplate (50 μL/well).
Aliquots of human serum protein solution (human serum protein concentration 50%) were dispensed in the amount of 100 μL/well to a 96-well microplate containing the test sample. This was then left to stand for 1 h at room temperature. Culture medium in the amount of 100 μL/well in each case was dispensed to a serum-free plate for control purposes. Aliquots of MT-4 cells in the amount of 3.0×10^5/well and HIV virus liquid in the amount of 3 μL/well were mixed for the necessary number of wells and reacted for 1 h at 37° C. After the reaction, the cell suspension was centrifuged and the supernatant discarded; aliquots of infected cells were distributed to culture medium in the amount of 50 μL/well and were dispensed in the amount of 50 μL/well in each case into the wells of a 96-well microplate containing test samples and human serum protein (human serum protein concentration: 25%). Mixing was performed using a plate mixer and culturing was performed for four days with a CO2 incubator. […] MTT(3-(4, 5-dimethylthiazol-2-yl)-2, 5-diphenyltetrazolium bromide) liquid in the amount of 30 μL was dispensed to each of the wells. The reaction was performed for 1 h in a CO2 incubator. 150 μL supernatant was removed to avoid aspirating cells from the wells. 150 μL of cell solution was added and thorough mixing was performed, using a plate mixer, until all the cells were dissolved. The optical absorbance on the mixed plate was measured at two wavelengths, namely, 560 nm/690 nm, using a microplate reader.
Next, the potency shift (PS) was calculated, using the following formula. The PS is the value of the human serum protein concentration, extrapolated to 100%.

[4] = system: HIV mutant strain 1 (E138K/G140S/Q148H/N155H); assay: Test Example 2: resistance evaluation test (HeLa-CD4 reporter), mutant strain 1; assay type: cell-based; settings: FC=EC50 of mutant strain/EC50 of wild strain; HeLa-CD4 cells
Method in brief: as §1

[5] = Test Example 8: metabolic stability test; assay type: in vitro ADME, human; settings: pooled human liver microsomes, 30 min at 37° C., NADPH, compound concentration 0.5 μmol/L
Method in brief: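 Pooled human liver microsomes (0.5 mg protein/mL, Tris-HCl pH 7.4) incubated with compound and 1 mmol/L NADPH for 0 or 30 min at 37° C. After methanol/acetonitrile quench, remaining parent was quantified by LC/MS/MS or SPE/MS and expressed as % of the 0 min amount.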

[6] = biological target: T1, voltage-gated sodium channel (Nav 1.5 channel) (Homo sapiens, UniProt Q14524); assay: Test Example 14: Nav test (patch clamp, HEK cells); assay type: cell-based; settings: HEK cells expressing Nav 1.5 channel, whole cell patch clamp
T1 construct: expressed in transfected cells; host or cells: HEK cells
Experimental: Using a fully automatic patch clamp system (QPatch: Sophion Bioscience A/S), by the whole cell patch clamp method, the cells were maintained at a membrane potential of −100 mV and the induced INa when a −10 mV depolarization stimulus was applied for 20 msec was recorded. […] From the INa obtained, using analysis software (QPatch: Sophion Bioscience A/S), the absolute value of the maximum peak current was measured, with reference to the current value at the maintained membrane potential.

HIV [7] = assay: microbe, parasite or virus in culture; assay type: cell-based; settings: Human immunodeficiency virus 1, MT4, 96 h, read-out: EC50 (50% HIV inhibition concentration), MT-4 cells, HIV, cultured four days, MTT; compounds of formula (I) of (A)
Method in brief: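 MT-4 cells infected with HIV in the presence of serially diluted test samples and cultured four days at CO2 incubator conditions. Cell viability measured by MTT reduction (1 h), solubilised formazan read at 560/690 nm.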

[8] = system: HIV mutant strain 3 (E92Q/E138K/G140S/Q148H); assay: Test Example 2: resistance evaluation test (HeLa-CD4 reporter), mutant strain 3; assay type: cell-based; settings: FC=EC50 of mutant strain/EC50 of wild strain; HeLa-CD4 cells
Experimental: (§2) A serial dilution series of test samples in 96-well microplates was prepared (50 […]).
(§3) 2.5×10^4/mL of HeLa-CD4 cell suspension was dispensed into each of the microplates containing test sample, in the amount of 100 μL/well, and HIV virus liquid (wild strain and mutant strain) was then dispensed in an amount of 50 μL/well. Mixing was performed using a plate mixer and culturing was performed for three days in a CO2 incubator. After removing the cultured supernatant of each well by suction, 100 μL of the cell solution buffer in the reporter measurement kit was dispensed thereto, and freezing was conducted in a refrigerator (−80° C.). The plates frozen in the refrigerator were defrosted at room temperature, then mixed using a plate mixer and centrifuged for 5 min at 1,200 rpm. The supernatant of each well was divided to 96-well microplates (BLACK) in the amount of 20 μL in each case. The chemiluminescence reagent in the reporter assay kit was dispensed in the amount of 100 μL in each case, and, after reacting for about 1 h at room temperature, the amount of luminescence was measured using a MicroBeta TRILUX.
(§4) The degree of resistance (fold change (FC)) of each mutant strain was also calculated using the following formula. FC=EC50 of mutant strain/EC50 of wild strain (Results)

[9] = system: HIV mutant strain 4 (T97A/E138T/G140S/Q148H); assay: Test Example 2: resistance evaluation test (HeLa-CD4 reporter), mutant strain 4; assay type: cell-based; settings: FC=EC50 of mutant strain/EC50 of wild strain; HeLa-CD4 cells
Experimental: as §2, §3, §4

[10] = combination with compound (B) Compound C (CAI)
[11] = combination with compound (B) Darunavin (PI)
[12] = combination with compound (B) Darunavir (PI)
[13] = combination with compound (B) GS-6207 (CAI)
[14] = combination with compound (B) GSK2838232 (maturation inhibitor)
[15] = combination with compound (B) I′-189 (INLAI)
[16] = combination with compound (B) Lilpiperine (polymerase inhibitor)
[17] = combination with compound (B) Ramipzin (3TC) (polymerase inhibitor)
[18] = combination with compound (B) Rilpivirine (polymerase inhibitor)
[19] = combination with compound (B) VM-1500 (polymerase inhibitor)

T1 sequence (Q14524 whole entry): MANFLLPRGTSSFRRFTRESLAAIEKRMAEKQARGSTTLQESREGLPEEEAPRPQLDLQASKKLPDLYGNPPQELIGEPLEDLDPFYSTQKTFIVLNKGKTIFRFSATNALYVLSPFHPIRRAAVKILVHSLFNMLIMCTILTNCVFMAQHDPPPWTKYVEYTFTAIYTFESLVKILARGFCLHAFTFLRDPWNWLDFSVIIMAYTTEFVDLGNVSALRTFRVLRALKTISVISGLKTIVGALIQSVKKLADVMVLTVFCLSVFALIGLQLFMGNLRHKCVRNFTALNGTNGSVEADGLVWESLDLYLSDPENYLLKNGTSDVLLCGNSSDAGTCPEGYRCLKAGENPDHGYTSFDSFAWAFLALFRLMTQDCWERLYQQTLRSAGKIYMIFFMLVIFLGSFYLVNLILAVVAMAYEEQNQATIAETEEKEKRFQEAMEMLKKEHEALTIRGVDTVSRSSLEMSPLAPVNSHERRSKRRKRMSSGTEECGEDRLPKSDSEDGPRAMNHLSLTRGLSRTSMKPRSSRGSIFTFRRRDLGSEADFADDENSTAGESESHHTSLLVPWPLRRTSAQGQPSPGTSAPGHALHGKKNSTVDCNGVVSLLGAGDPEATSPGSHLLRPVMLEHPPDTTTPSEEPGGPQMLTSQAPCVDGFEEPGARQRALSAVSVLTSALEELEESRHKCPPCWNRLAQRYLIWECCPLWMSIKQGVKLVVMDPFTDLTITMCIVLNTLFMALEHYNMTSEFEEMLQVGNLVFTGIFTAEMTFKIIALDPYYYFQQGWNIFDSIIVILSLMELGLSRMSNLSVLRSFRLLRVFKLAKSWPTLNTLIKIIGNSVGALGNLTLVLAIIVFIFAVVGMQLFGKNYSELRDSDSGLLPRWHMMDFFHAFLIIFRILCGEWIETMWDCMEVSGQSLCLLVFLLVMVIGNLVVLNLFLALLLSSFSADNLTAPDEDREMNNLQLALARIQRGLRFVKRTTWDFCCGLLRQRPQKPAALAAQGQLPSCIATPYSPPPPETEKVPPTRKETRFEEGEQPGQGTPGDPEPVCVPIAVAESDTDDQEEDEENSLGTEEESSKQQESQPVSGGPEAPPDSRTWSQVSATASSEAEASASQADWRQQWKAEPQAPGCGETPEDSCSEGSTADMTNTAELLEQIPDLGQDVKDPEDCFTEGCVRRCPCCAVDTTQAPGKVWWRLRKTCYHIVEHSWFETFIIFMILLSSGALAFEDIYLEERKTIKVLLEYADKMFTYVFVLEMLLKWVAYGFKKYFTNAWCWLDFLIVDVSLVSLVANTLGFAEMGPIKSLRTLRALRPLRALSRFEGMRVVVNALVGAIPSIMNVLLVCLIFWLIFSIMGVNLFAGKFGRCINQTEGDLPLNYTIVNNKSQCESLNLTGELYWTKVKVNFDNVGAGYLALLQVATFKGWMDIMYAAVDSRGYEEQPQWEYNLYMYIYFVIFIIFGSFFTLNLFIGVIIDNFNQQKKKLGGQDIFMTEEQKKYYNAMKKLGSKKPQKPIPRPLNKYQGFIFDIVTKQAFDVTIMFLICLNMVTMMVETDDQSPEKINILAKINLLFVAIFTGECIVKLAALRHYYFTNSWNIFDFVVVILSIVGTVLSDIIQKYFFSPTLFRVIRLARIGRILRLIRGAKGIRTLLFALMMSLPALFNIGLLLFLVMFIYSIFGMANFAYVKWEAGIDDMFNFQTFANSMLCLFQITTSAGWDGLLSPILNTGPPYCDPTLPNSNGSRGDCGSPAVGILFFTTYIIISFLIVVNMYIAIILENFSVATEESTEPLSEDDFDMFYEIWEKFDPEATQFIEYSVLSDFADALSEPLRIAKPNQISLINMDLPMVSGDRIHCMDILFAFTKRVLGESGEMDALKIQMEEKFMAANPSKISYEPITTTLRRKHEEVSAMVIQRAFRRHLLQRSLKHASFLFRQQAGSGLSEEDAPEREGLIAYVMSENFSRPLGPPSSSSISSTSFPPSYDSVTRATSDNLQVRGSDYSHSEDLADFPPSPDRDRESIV

SMILES | FC in respect of mutant strain 2 (E92Q/E138T/G140S/Q148H) [1] | D value (dosewise additivity value) (HIV [2]; [10]) | effect of combined use (HIV [2]; [10]) | D value (dosewise additivity value) (HIV [2]; [11]) | effect of combined use (HIV [2]; [12]) | D value (dosewise additivity value) (HIV [2]; [13]) | effect of combined use (HIV [2]; [13]) | D value (dosewise additivity value) (HIV [2]; [14]) | effect of combined use (HIV [2]; [14]) | D value (dosewise additivity value) (HIV [2]; [15]) | effect of combined use (HIV [2]; [15]) | effect of combined use (HIV [2]; [16]) | D value (dosewise additivity value) (HIV [2]; [17]) | effect of combined use (HIV [2]; [17]) | D value (dosewise additivity value) (HIV [2]; [18]) | D value (dosewise additivity value) (HIV [2]; [19]) | effect of combined use (HIV [2]; [19]) | FC in respect of mutant strain 1 (E138K/G140S/Q148H/N155H) [4] | Remaining percentage [5] | ratio of maximum peak current (INa) on application of compound to that on application of medium [6] | also measured
COC[C@@H]1CC[C@H]2N(C)C(=O)c3c(O)c(=O)c(C(=O)NCc4cccc(Cl)c4F)cn3N12 [II-026] | 6.9 | 0.043 | Additive (−0.1 to −0.1: additive synergetic effect) | −0.137 | Weak synergy (−0.2 to −0.1: weak synergetic effect) | −0.043 | Additive (−0.1 to −0.1: additive synergetic effect) | −0.061 | Additive (−0.1 to −0.1: additive synergetic effect) | 0.056 | Additive (−0.1 to −0.1: additive synergetic effect) | Additive (−0.1 to −0.1: additive synergetic effect) | −0.232 | Strong synergy (−0.5 to −0.2: strong synergetic effect) | −0.077 | −0.155 | Weak synergy (−0.2 to −0.1: weak synergetic effect) | 10 | 86% | 79% | potency shift (PS) in the presence of human serum protein (HIV [3]): 364
CCN1C(=O)c2c(O)c(=O)c(-c3nnc(Cc4c(F)cc(F)cc4F)s3)cn2N2CCCC[C@@H]12 [Compound I-007] | 6.9 | 0.059 | Additive (−0.1 to −0.1: additive synergetic effect) | −0.096 | Additive (−0.1 to −0.1: additive synergetic effect) | −0.040 | Additive (−0.1 to −0.1: additive synergetic effect) | 0.017 | Additive (−0.1 to −0.1: additive synergetic effect) | 0.053 | Additive (−0.1 to −0.1: additive synergetic effect) | Additive (−0.1 to −0.1: additive synergetic effect) | −0.231 | Strong synergy (−0.5 to −0.2: strong synergetic effect) | −0.054 | −0.097 | Additive (−0.1 to −0.1: additive synergetic effect) | 3.8 | 97.7% | 103% | EC50 (HIV [7]): 1.6 nM; potency shift (PS) in the presence of human serum protein (HIV [3]): 116
CN1C(=O)c2c(O)c(=O)c(C(=O)NCc3ccc(F)cc3F)cn2N2CCCC[C@@H]12 [Compound I-032] | 18 | – | – | – | – | – | – | – | – | – | – | – | – | – | – | – | – | 51 | 103% | 92.1% | FC in respect of mutant strain 3 (E92Q/E138K/G140S/Q148H) [8]: Compound I-032: 7.7; FC in respect of mutant strain 4 (T97A/E138T/G140S/Q148H) [9]: compound I-032: 10
CCN1C(=O)c2c(O)c(=O)c(-c3nnc(Cc4ccc(F)cc4F)s3)cn2N2C[C@@H](C)C[C@@H]12 [II-109] | 2.5 | 0.071 | Additive (−0.1 to −0.1: additive synergetic effect) | −0.143 | Weak synergy (−0.2 to −0.1: weak synergetic effect) | −0.059 | Additive (−0.1 to −0.1: additive synergetic effect) | −0.054 | Additive (−0.1 to −0.1: additive synergetic effect) | 0.056 | Additive (−0.1 to −0.1: additive synergetic effect) | Additive (−0.1 to −0.1: additive synergetic effect) | −0.145 | Weak synergy (−0.2 to −0.1: weak synergetic effect) | −0.096 | −0.094 | Additive (−0.1 to −0.1: additive synergetic effect) | 4.1 | 98.3% | 93.3% | EC50 (HIV [7]): 1.2 nM; potency shift (PS) in the presence of human serum protein (HIV [3]): 56
